Test results taken from patent US20120252721A1 (priority 2011, published 2012).

Experiments:
[1] = system: HCV genotype 1a replicon, NS5A E295G; test: Luciferase replicon transient transfection assay, genotype 1a NS5A E295G; assay type: cell-based, hepatitis C virus
Procedure: (§1) The luciferase replicon transient transfection assay measures the ability of a test compound to inhibit the replication of a transiently-transfected HCV luciferase-bearing wild-type or mutant replicon in cured human hepatoma cells (Huh7.5). The inhibition of HCV replication was measured by quantification of luciferase protein expression. This assay has been validated using a panel of genotype 1a and 1b replicons bearing mutations known to be associated with resistance to BMS-790052. Briefly, subconfluent Huh7.5 cells were electroporated with 10 μg of wild-type or mutant luciferase-bearing HCV replicon RNA. The cells were then seeded in 96-well opaque white plates at 3×10^4 cells/well in 150 μL/well and incubated for 4 hrs at 37° C./5% CO2. Ten 1:5 serial dilutions of each test compound were made in media (DMEM containing glucose, L-glutamine and sodium pyruvate, 10% fetal bovine serum, 100 IU/mL penicillin, 100 μg/mL streptomycin, 2 mM GlutaMAX, and 1×MEM non-essential amino acids (Mediatech, Inc. and Invitrogen Corp.)) at concentrations that were 4× higher than the final concentrations to be tested and 50 μL/well was added to the transfected cells. Untreated, mock-transfected cells served as a negative control of luciferase expression. The plates were incubated at 37° C./5% CO2 for 4 days whereupon the media was removed and 50 μL of ONE-glo luciferase substrate (Promega) was added to each well. The plates were agitated on a rotating platform at room temperature for 3 min and read in a Victor^3V microplate reader (Perkin-Elmer) using a 700 nm cut-off filter with a 1 sec read time. EC50 values were calculated from dose response curves from the resulting best-fit equations determined by Microsoft Excel and XLfit 4.1 software.

[2] = system: HCV genotype 1a replicon, NS4B E15G; test: Luciferase replicon transient transfection assay, genotype 1a NS4B E15G; assay type: cell-based, hepatitis C virus
Procedure: as §1
(§2) To determine the replication capacity of each mutant relative to the wild-type parental replicon, transfected cells were plated on two plates and were not treated with compound. Luciferase activity was measured at time points of 4 hrs and 4 days after plating for each replicon. Replication capacity was calculated by dividing the day 4 CPS by the 4 hour CPS for each replicon and determining the percentage present for each mutant replicon relative to wild-type replicon values. The NS3, NS4B, and NS5B mutants were prepared and tested according to the methods described herein.

[3] = system: ZS11-luc Y93C (HCV genotype 1b replicon); test: Luciferase replicon transient transfection assay, ZS11-luc Y93C; assay type: cell-based, hepatitis C virus
Procedure: as §1

[4] = system: 1a-luc L31M (HCV genotype 1a replicon); test: Luciferase replicon transient transfection assay, 1a-luc L31M; assay type: cell-based, hepatitis C virus
Procedure: as §1

[5] = system: ZS11-luc L31F (HCV genotype 1b replicon); test: Luciferase replicon transient transfection assay, ZS11-luc L31F; assay type: cell-based, hepatitis C virus
Procedure: as §1

[6] = system: ZS11-luc L31V (HCV genotype 1b replicon); test: Luciferase replicon transient transfection assay, ZS11-luc L31V; assay type: cell-based, hepatitis C virus; conditions: for EC50: Hepatitis C virus, 96 h, Huh7.5 cells, 4 days
Procedure: as §1

[7] = system: 1a-luc L31V (HCV genotype 1a replicon); test: Luciferase replicon transient transfection assay, 1a-luc L31V; assay type: cell-based, hepatitis C virus; conditions: for EC50: Hepatitis C virus, 96 h, Huh7.5 cells, 4 days
Procedure: as §1

[8] = system: ZS11-luc Y93H (HCV genotype 1b replicon); test: Luciferase replicon transient transfection assay, ZS11-luc Y93H; assay type: cell-based, hepatitis C virus; conditions: for EC50: Hepatitis C virus, 96 h, Huh7.5 cells, 4 days
Procedure: as §1

[9] = system: 1a-luc Y93N (HCV genotype 1a replicon); test: Luciferase replicon transient transfection assay, 1a-luc Y93N; assay type: cell-based, hepatitis C virus
Procedure: as §1

[10] = system: 1a-luc WT (HCV genotype 1a replicon); test: Luciferase replicon transient transfection assay, 1a-luc WT; assay type: cell-based; conditions: Hepatitis C virus, 96 h, Huh7.5 cells, 4 days
Procedure: as §1

[11] = system: ZS11-luc WT (HCV genotype 1b replicon); test: Luciferase replicon transient transfection assay, ZS11-luc WT; assay type: cell-based, hepatitis C virus; conditions: Hepatitis C virus, Huh7.5, 96 h, genotype 1b, ZS11-luc WT, Huh7.5 cells, 4 days
Procedure: as §1

[12] = system: 1a-luc Q30E (HCV genotype 1a replicon); test: Luciferase replicon transient transfection assay, 1a-luc Q30E; assay type: cell-based, hepatitis C virus; conditions: for EC50: Hepatitis C virus, 96 h, Huh7.5 cells, 4 days
Procedure: as §1

[13] = system: 1a-luc Q30H (HCV genotype 1a replicon); test: Luciferase replicon transient transfection assay, 1a-luc Q30H; assay type: cell-based, hepatitis C virus
Procedure: as §1

[14] = system: HCV genotype 1a replicon, NS3 T260A; test: Luciferase replicon transient transfection assay, genotype 1a NS3 T260A; assay type: cell-based, hepatitis C virus
Procedure: as §1, §2

[15] = system: 1a-luc L31F (HCV genotype 1a replicon); test: Luciferase replicon transient transfection assay, 1a-luc L31F; assay type: cell-based, hepatitis C virus
Procedure: as §1

[16] = system: ZS11-luc P32L (HCV genotype 1b replicon); test: Luciferase replicon transient transfection assay, ZS11-luc P32L; assay type: cell-based, hepatitis C virus
Procedure: as §1

[17] = system: 1a-luc Y93C (HCV genotype 1a replicon); test: Luciferase replicon transient transfection assay, 1a-luc Y93C; assay type: cell-based, hepatitis C virus
Procedure: as §1

[18] = system: ZS11-luc R30E (HCV genotype 1b replicon); test: Luciferase replicon transient transfection assay, ZS11-luc R30E; assay type: cell-based, hepatitis C virus
Procedure: as §1

[19] = system: ZS11-luc L28T (HCV genotype 1b replicon); test: Luciferase replicon transient transfection assay, ZS11-luc L28T; assay type: cell-based, hepatitis C virus
Procedure: as §1

[20] = system: 1a-luc Q30K (HCV genotype 1a replicon); test: Luciferase replicon transient transfection assay, 1a-luc Q30K; assay type: cell-based, hepatitis C virus
Procedure: as §1

[21] = system: 1a-luc Y93H (HCV genotype 1a replicon); test: Luciferase replicon transient transfection assay, 1a-luc Y93H; assay type: cell-based, hepatitis C virus; conditions: for EC50: Hepatitis C virus, 96 h, Huh7.5 cells, 4 days
Procedure: as §1

[22] = system: HCV genotype 1a replicon, NS5A K24E; test: Luciferase replicon transient transfection assay, genotype 1a NS5A K24E; assay type: cell-based, hepatitis C virus
Procedure: as §1

[23] = system: 1a-luc P32L (HCV genotype 1a replicon); test: Luciferase replicon transient transfection assay, 1a-luc P32L; assay type: cell-based, hepatitis C virus
Procedure: as §1

[24] = system: ZS11-luc L31M (HCV genotype 1b replicon); test: Luciferase replicon transient transfection assay, ZS11-luc L31M; assay type: cell-based, hepatitis C virus
Procedure: as §1

[25] = system: 1a-luc M28T (HCV genotype 1a replicon); test: Luciferase replicon transient transfection assay, 1a-luc M28T; assay type: cell-based, hepatitis C virus
Procedure: as §1

[26] = system: 1a-luc Q30R (HCV genotype 1a replicon); test: Luciferase replicon transient transfection assay, 1a-luc Q30R; assay type: cell-based, hepatitis C virus
Procedure: as §1

[27] = system: ZS11-luc Y93N (HCV genotype 1b replicon); test: Luciferase replicon transient transfection assay, ZS11-luc Y93N; assay type: cell-based, hepatitis C virus
Procedure: as §1

[28] = Hepatitis C virus, 96 h, Huh7.5 cells, 4 days

`COC(=O)N[C@H](C(=O)N1CCC[C@H]1c1nc(-c2ccc(-c3ccc(-c4c[nH]c([C@@H]5CCCN5C(=O)[C@@H](NC(=O)OC)C(C)C)n4)cc3)cc2)c[nH]1)C(C)C` [BMS-790052, reference compound] was tested, and the EC50 ([1]; Hepatitis C virus, genotype 1a, HCV region NS5A, mutation E295G) was 0.028 nM, the Ratio ([1]; {}) was 1.56 and the EC50 ([2]; Hepatitis C virus, HCV region NS4B, mutation E15G) was 0.029 nM. For the same compound, the Ratio ([2]; NS4B E15G) was 1.62, the Ratio [3] was 2 and the EC50 [3, 28] was 0.04 nM. The Ratio [4] was 115, the EC50 [4, 28] was 3 nM and the Ratio [5] was 7. For the same compound, the EC50 [5, 28] was 0.1 nM, the Ratio [6] was 23 and the EC50 [6] was 0.4 nM. For the same compound, the Ratio [7] was 899, the EC50 [7] was 23 nM and the Ratio [8] was 19. For the same compound, the EC50 [8] was 0.4 nM, the Ratio [9] was 7842 and the EC50 [9, 28] was 192 nM. The EC50 [10] was 0.026 nM, the EC50 [11] was 0.02 nM and the Ratio [12] was 2935. The EC50 [12] was 74 nM, the Ratio [13] was 155 and the EC50 [13, 28] was 4 nM. The EC50 ([14]; Hepatitis C virus, genotype 1a, HCV region NS3, mutation T260A) was 0.031 nM, the Ratio ([14]; {}) was 1.74 and the Ratio [15] was 43. The EC50 [15, 28] was 1 nM, the Ratio [16] was 9 and the EC50 [16, 28] was 0.2 nM. It also gave a Ratio [17] of 287, an EC50 [17, 28] of 7 nM and a Ratio [18] of 7. The EC50 [18, 28] was 0.1 nM, the Ratio [19] was 25 and the EC50 [19, 28] was 0.5 nM. For the same compound, the Ratio [20] was 752, the EC50 [20, 28] was 19 nM and the Ratio [21] was 1392. The EC50 [21] was 35 nM, the EC50 ([22]; Hepatitis C virus, genotype 1a, HCV region NS5A, mutation K24E) was 0.032 nM and the Ratio ([22]; {}) was 1.78. It also gave a Ratio [23] of 142, an EC50 [23, 28] of 4 nM and a Ratio [24] of 3. It also gave an EC50 [24, 28] of 0.06 nM, a Ratio [25] of 165 and an EC50 [25, 28] of 4 nM. For the same compound, the Ratio [26] was 95, the EC50 [26, 28] was 2 nM and the Ratio [27] was 33. It also gave an EC50 [27, 28] of 0.7 nM.

For `COC(=O)N[C@H](C(=O)N1CCC[C@H]1c1ncc(-c2ccc(-c3cc4sc(-c5ccc(-c6c[nH]c(C7CCCN7C(=O)[C@H](NC(=O)OC)c7ccccc7)n6)cc5)cc4s3)cc2)[nH]1)C(C)C` (stereo partly shown) [Compound A192], the Ratio [6] was 20, the EC50 [6] was 0.05 nM and the Ratio [7] was 678. The EC50 [7] was 11 nM, the Ratio [8] was 138 and the EC50 [8] was 0.4 nM. The EC50 [10] was 0.02 nM, the EC50 [11] was 0.003 nM and the Ratio [12] was 597. For the same compound, the EC50 [12] was 9 nM, the Ratio [21] was 5072 and the EC50 [21] was 79 nM.

With `COC(=O)N[C@H](C(=O)N1CCCC1c1ncc(-c2csc3c(-c4ccc(-c5cnc(C6CCCN6C(=O)C(c6ccccc6)N6CCCCC6)[nH]5)cc4)csc23)[nH]1)C(C)C` (stereo partly shown) [Compound A219] the Ratio [6] was 4, the EC50 [6] was 0.05 nM and the Ratio [7] was 442. It also gave an EC50 [7] of 18 nM, a Ratio [8] of 49 and an EC50 [8] of 0.6 nM. The EC50 [10] was 0.04 nM, the EC50 [11] was 0.01 nM and the Ratio [12] was 25. The EC50 [12] was 1 nM, the Ratio [21] was 4841 and the EC50 [21] was 210 nM.
